Test results from ChEMBL document CHEMBL1201862, “PubChem BioAssay data set” (2004).
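All cell lines were grown in 96-well plates and treated with compound for 48 hours. The concentration for 50% growth inhibition is given as GI50.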 Calls of active or inactive are those of the source. Rule as the data show it: active = GI50 up to about 1.1 µM and inactive = higher.

Tests used:
Test in all cases: NCI-60 cell line screen, 48 h
[1] = system: COLO 205
[2] = system: OVCAR-3
[3] = system: SF-268
[4] = system: K562
[5] = system: HOP-92
[6] = system: PC-3
[7] = system: HL-60
[8] = system: SNB-19
[9] = system: HCT-116
[10] = system: RPMI-8226
[11] = system: SK-MEL-5
[12] = system: UACC-257
[13] = system: KM12
[14] = system: ACHN
[15] = system: SK-MEL-2
[16] = system: CAKI-1
[17] = system: MDA-MB-231
[18] = system: SK-MEL-28
[19] = system: SW-620
[20] = system: MDA-MB-435

Row | Compound | GI50 [1] | GI50 [2] | GI50 [3] | GI50 [4] | GI50 [5] | GI50 [6] | GI50 [7] | GI50 [8] | GI50 [9] | GI50 [10] | GI50 [11] | GI50 [12] | GI50 [13] | GI50 [14] | GI50 [15] | GI50 [16] | GI50 [17] | GI50 [18] | GI50 [19] | GI50 [20]
1 | CCOC(=O)c1cc(Sc2ccc(N)c(C(=O)OCC)c2)ccc1N | 60.8 µM (inactive) | 24.8 µM (inactive) | 16.1 µM (inactive) | 7.98 µM (inactive) | 58.2 µM (inactive) | 11.4 µM (inactive) | 16.7 µM (inactive) | > 100 µM (inactive) | > 100 µM (inactive) | 24 µM (inactive) | > 100 µM (inactive) | > 100 µM (inactive) | 5.62 µM (inactive) | 10.4 µM (inactive) | > 100 µM (inactive) | 7.69 µM (inactive) | 14.4 µM (inactive) | > 100 µM (inactive) | > 100 µM (inactive) | –
2 | COC(=O)N/N=C(\C)c1sc(-c2nc(C)c(/C(C)=N/NC(=O)OC)s2)nc1C | > 100 µM (inactive) | > 100 µM (inactive) | > 100 µM (inactive) | > 100 µM (inactive) | > 100 µM (inactive) | – | 39.1 µM (inactive) | > 100 µM (inactive) | > 100 µM (inactive) | > 100 µM (inactive) | > 100 µM (inactive) | > 100 µM (inactive) | > 100 µM (inactive) | > 100 µM (inactive) | > 100 µM (inactive) | > 100 µM (inactive) | – | > 100 µM (inactive) | – | –
3 | C=C1CCC2C(C)(CO)C(O)CCC2(C)C1CC(O)/C(=C/CO)C(=O)O (centres undefined) | > 100 µM (inactive) | – | > 100 µM (inactive) | > 100 µM (inactive) | > 100 µM (inactive) | – | > 100 µM (inactive) | > 100 µM (inactive) | > 100 µM (inactive) | > 100 µM (inactive) | > 100 µM (inactive) | > 100 µM (inactive) | > 100 µM (inactive) | > 100 µM (inactive) | > 100 µM (inactive) | > 100 µM (inactive) | – | – | > 100 µM (inactive) | –
4 | NC(=O)c1ncn(CCN2CCN(C(=O)NCCCCCCNC(=O)N3CCN(CCn4cnc(C(N)=O)c4N)CC3)CC2)c1N | > 100 µM (inactive) | > 100 µM (inactive) | > 100 µM (inactive) | > 100 µM (inactive) | > 100 µM (inactive) | – | > 100 µM (inactive) | > 100 µM (inactive) | > 100 µM (inactive) | > 100 µM (inactive) | > 100 µM (inactive) | > 100 µM (inactive) | > 100 µM (inactive) | > 100 µM (inactive) | > 100 µM (inactive) | > 100 µM (inactive) | – | > 100 µM (inactive) | > 100 µM (inactive) | –
5 | O=C(CC1(O)C(=O)Nc2c(Cl)cccc21)c1ccccc1 (centres undefined) | > 100 µM (inactive) | > 100 µM (inactive) | > 100 µM (inactive) | > 100 µM (inactive) | > 100 µM (inactive) | – | > 100 µM (inactive) | > 100 µM (inactive) | – | 49.3 µM (inactive) | > 100 µM (inactive) | > 100 µM (inactive) | > 100 µM (inactive) | > 100 µM (inactive) | > 100 µM (inactive) | > 100 µM (inactive) | – | > 100 µM (inactive) | 76.4 µM (inactive) | –
6 | CCC1=C(C)/C(=C/c2[nH]c(CBr)c(CC)c2C)N=C1CBr | 11.3 µM (inactive) | 16.1 µM (inactive) | 13.7 µM (inactive) | 8.22 µM (inactive) | 7.46 µM (inactive) | – | 4.59 µM (inactive) | 16.4 µM (inactive) | – | 5.66 µM (inactive) | 16.8 µM (inactive) | > 10 µM (inactive) | 11.6 µM (inactive) | > 10 µM (inactive) | 22.2 µM (inactive) | 10.2 µM (inactive) | – | 15.6 µM (inactive) | 12.2 µM (inactive) | –
7 | CCS(=O)(=O)Nc1ccc(Nc2c3ccccc3nc3ccccc23)c(OC)c1 | 2.22 µM (inactive) | 2.03 µM (inactive) | 0.421 µM (active) | 0.681 µM (active) | 0.697 µM (active) | – | 0.0168 µM (active) | 0.273 µM (active) | 1.19 µM (inactive) | 0.28 µM (active) | 0.796 µM (active) | 2.6 µM (inactive) | 1.75 µM (inactive) | – | 5.37 µM (inactive) | 0.0962 µM (active) | – | 3.03 µM (inactive) | 0.527 µM (active) | –
8 | CC1=C(N2CC2)C(=O)C(CO)=C(N2CC2)C1=O | – | 0.0203 µM (active) | 0.0129 µM (active) | 0.0186 µM (active) | – | – | < 0.01 µM (active) | 0.0927 µM (active) | < 0.0291 µM (active) | < 0.0142 µM (active) | 0.0279 µM (active) | 0.0923 µM (active) | 0.0227 µM (active) | < 0.01 µM (active) | – | < 0.01 µM (active) | 0.173 µM (active) | 0.0711 µM (active) | 0.0123 µM (active) | –
9 | COC(=O)C(Cc1c[nH]c2ccccc12)NC(=O)C(Cc1c[nH]cn1)NC(=O)C1CCC(=O)N1C(=O)OCc1ccccc1 (centres undefined) | > 100 µM (inactive) | – | – | > 100 µM (inactive) | > 100 µM (inactive) | > 100 µM (inactive) | > 100 µM (inactive) | > 100 µM (inactive) | > 100 µM (inactive) | > 100 µM (inactive) | > 100 µM (inactive) | > 100 µM (inactive) | > 100 µM (inactive) | > 100 µM (inactive) | > 100 µM (inactive) | – | – | > 100 µM (inactive) | > 100 µM (inactive) | –
10 | C[n+]1ccc2[nH]c3ccccc3c2c1 | > 100 µM (inactive) | > 100 µM (inactive) | > 100 µM (inactive) | > 100 µM (inactive) | > 100 µM (inactive) | – | > 100 µM (inactive) | > 100 µM (inactive) | 48.6 µM (inactive) | > 100 µM (inactive) | > 78.3 µM (inactive) | > 100 µM (inactive) | 77.1 µM (inactive) | > 100 µM (inactive) | > 100 µM (inactive) | > 100 µM (inactive) | – | > 100 µM (inactive) | > 86.3 µM (inactive) | –
11 | CC1=C(C(=O)Nc2ccccc2)C(c2ccccc2Cl)C(C(=O)Nc2ccccc2)=C(C)N1 | 19.4 µM (inactive) | 17.6 µM (inactive) | 24.4 µM (inactive) | 38.6 µM (inactive) | 21.6 µM (inactive) | – | < 0.01 µM (active) | 24.8 µM (inactive) | 22.6 µM (inactive) | 19.4 µM (inactive) | 15.2 µM (inactive) | 19.4 µM (inactive) | – | 30.5 µM (inactive) | 18 µM (inactive) | 27.9 µM (inactive) | – | 27.1 µM (inactive) | 30.7 µM (inactive) | –
12 | Nc1c(C(=O)c2ccccc2)[nH]c(NCc2ccccc2)c1C(=S)Nc1ccccc1 | > 100 µM (inactive) | > 100 µM (inactive) | > 100 µM (inactive) | > 100 µM (inactive) | > 100 µM (inactive) | – | > 100 µM (inactive) | > 100 µM (inactive) | > 100 µM (inactive) | – | > 100 µM (inactive) | > 100 µM (inactive) | > 100 µM (inactive) | > 100 µM (inactive) | > 100 µM (inactive) | > 100 µM (inactive) | > 100 µM (inactive) | > 100 µM (inactive) | > 100 µM (inactive) | > 100 µM (inactive)
13 | CCc1ccccc1NC(=O)C1=C(C)NC(C)=C(C(=O)Nc2ccccc2CC)C1c1ccccc1Cl | > 100 µM (inactive) | > 100 µM (inactive) | > 100 µM (inactive) | > 100 µM (inactive) | 57.1 µM (inactive) | – | 64.6 µM (inactive) | > 100 µM (inactive) | > 100 µM (inactive) | > 100 µM (inactive) | > 100 µM (inactive) | > 100 µM (inactive) | > 100 µM (inactive) | 47.4 µM (inactive) | > 100 µM (inactive) | > 100 µM (inactive) | – | > 100 µM (inactive) | > 100 µM (inactive) | –
14 | O=c1[nH]c(=O)n(COCc2ccccc2)cc1Nc1ccc(Br)cc1 | > 100 µM (inactive) | > 100 µM (inactive) | 28.5 µM (inactive) | > 100 µM (inactive) | > 100 µM (inactive) | > 100 µM (inactive) | > 100 µM (inactive) | > 100 µM (inactive) | > 100 µM (inactive) | > 100 µM (inactive) | > 100 µM (inactive) | > 100 µM (inactive) | > 100 µM (inactive) | > 100 µM (inactive) | – | > 100 µM (inactive) | – | > 100 µM (inactive) | > 100 µM (inactive) | > 100 µM (inactive)
15 | COc1cccc(-n2c3nc(=O)n(C)c(=O)c-3nc3ccccc32)c1 | 3.5 µM (inactive) | 2.69 µM (inactive) | 16.7 µM (inactive) | 24.2 µM (inactive) | 26 µM (inactive) | – | 6.01 µM (inactive) | 22 µM (inactive) | 23.1 µM (inactive) | 12.5 µM (inactive) | 3.24 µM (inactive) | 14.9 µM (inactive) | 27.1 µM (inactive) | 3.18 µM (inactive) | 19.6 µM (inactive) | 16.2 µM (inactive) | – | 22.1 µM (inactive) | 5.09 µM (inactive) | –
16 | O=C(CCN1CCOCC1)C(=Cc1ccccc1)C(=O)CCN1CCOCC1 | 2.51 µM (inactive) | 3.97 µM (inactive) | 6.85 µM (inactive) | 0.836 µM (active) | 2.11 µM (inactive) | – | 1.53 µM (inactive) | 14.9 µM (inactive) | 2.29 µM (inactive) | 1.04 µM (active) | 7.08 µM (inactive) | 1.79 µM (inactive) | 5.01 µM (inactive) | – | 8.34 µM (inactive) | 3.99 µM (inactive) | – | 2.38 µM (inactive) | 1.92 µM (inactive) | –
